The experiment concerns the target CD73 (Homo sapiens (Human), UniProt P21589). Briefly: Biochemical Assay (CD73 inhibition, AMP hydrolysis, Malachite Green readout). To be noted: CD73 0.3208 nM, AMP 15 μM, Tris-HCl pH 7.4, Malachite Green absorbance. Here is the method:
Example A1: Biochemical Assay
Assay Reaction Conditions
• Assay Volume: 70 μl • Reaction Volume: 50 μl • CD73: 0.3208 nM • AMP: 15 μM • Assay Buffer: 2 5 mM Tris-HCL, pH 7.4, 0.01% Brij-35, 0.01% BSA, 5 mM MgCl2 Assay Procedure:
Made dose titration of testing compounds in assay buffer, 10 points ½ log titrations in duplicates starting at 100 μM.
Added 25 μl of CD73 to each well for a final concentration of 320 pM.
Incubated at RT for 15 min.
Added 25 μl of AMP to each well for a final concentration of 15 μM.
Incubated at RT for 10 min.
Added 10 μl of Malachite Green Reagent A, incubate at RT for 10 min.
Added 10 μl of Malachite Green Reagent B, incubate at RT for 45 min. […]
The ability of the compounds disclosed herein to inhibit CD73 activity was quantified and the respective IC50 values were determined. Table 1 provides the biochemical IC50 values of compounds disclosed herein.
CD73, sequence (P21589 27-574): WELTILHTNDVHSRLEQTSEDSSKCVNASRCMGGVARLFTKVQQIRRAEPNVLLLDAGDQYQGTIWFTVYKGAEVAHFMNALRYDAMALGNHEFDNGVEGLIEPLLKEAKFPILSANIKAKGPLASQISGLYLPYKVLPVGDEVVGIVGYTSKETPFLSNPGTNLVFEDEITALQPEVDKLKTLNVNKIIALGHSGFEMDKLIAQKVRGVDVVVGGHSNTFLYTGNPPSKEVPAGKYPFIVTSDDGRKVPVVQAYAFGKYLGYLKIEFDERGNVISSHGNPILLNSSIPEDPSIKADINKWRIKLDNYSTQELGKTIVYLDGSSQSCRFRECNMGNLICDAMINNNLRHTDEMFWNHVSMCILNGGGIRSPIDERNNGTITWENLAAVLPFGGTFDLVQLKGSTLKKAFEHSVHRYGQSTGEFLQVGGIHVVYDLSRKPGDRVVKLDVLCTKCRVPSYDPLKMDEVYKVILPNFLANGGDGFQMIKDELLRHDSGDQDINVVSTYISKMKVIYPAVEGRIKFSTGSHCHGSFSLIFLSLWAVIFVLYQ
As to `O=P(O)(O)CS(=O)(=O)C[C@H]1O[C@@H](n2nnc3c(NC4CCCC4)nc(Cl)nc32)[C@H](O)[C@@H]1O` [Example 108, (((((2S,3S,4R,5R)-5-(5-chloro-7-(cyclopentylamino)-3H-[1,2,3]triazolo[4,5-d]pyrimidin-3-yl)-3,4-dihydroxytetrahydrofuran-2-yl)methyl)sulfonyl)methyl)phosphonic acid], the IC50 is not above 500 nM. Under `CN(C[C@H]1O[C@@H](n2ncc3c(NC4CCCC4)nc(Cl)nc32)[C@H](O)[C@@H]1O)C(=O)CP(=O)(O)O` [Example 109, (2-((((2R,3S,4R,5R)-5-(6-chloro-4-(cyclopentylamino)-1H-pyrazolo[3,4-d]pyrimidin-1-yl)-3,4-dihydroxytetrahydrofuran-2-yl)methyl)(methyl)amino)-2-oxoethyl)phosphonic acid] stands not above 500 nM; under `CN(C[C@H]1O[C@@H](n2nnc3c(NC4CCCC4)nc(Cl)nc32)[C@H](O)[C@@H]1O)C(=O)CP(=O)(O)O` [Example 115, (2-((((2R,3S,4R,5R)-5-(5-chloro-7-(cyclopentylamino)-3H-[1,2,3]triazolo[4,5-d]pyrimidin-3-yl)-3,4-dihydroxytetrahydrofuran-2-yl)methyl)(methyl)amino)-2-oxoethyl)phosphonic acid], 500 to 1000 nM; under `N#Cc1cccc(CNc2nc(Cl)nc3c2cnn3[C@@H]2O[C@H](COCP(=O)(O)O)[C@@H](O)[C@H]2O)c1` [Example 46, ((((2R,3S,4R,5R)-5-(6-chloro-4-((3-cyanobenzyl)amino)-1H-pyrazolo[3,4-d]pyrimidin-1-yl)-3,4-dihydroxytetrahydrofuran-2-yl)methoxy)methyl)phosphonic acid], not above 500 nM. Under `O=C(CP(=O)(O)O)NC[C@H]1O[C@@H](n2ncc3c(NCc4ccccc4Cl)nc(Cl)nc32)[C@H](O)[C@@H]1O` [Example 2, (2-((((2R,3S,4R,5R)-5-(6-Chloro-4-((2-chlorobenzyl)amino)-1H-pyrazolo[3,4-d]pyrimidin-1-yl)-3,4-dihydroxytetrahydrofuran-2-yl)methyl)amino)-2-oxoethyl)phosphonic acid] stands more than 1000 nM; under `COc1nc(NCC2CC2)c2cnn([C@@H]3O[C@H](COCP(=O)(O)O)[C@@H](O)[C@H]3O)c2n1` [Example 82, ((((2R,3S,4R,5R)-5-(4-((cyclopropylmethyl)amino)-6-methoxy-1H-pyrazolo[3,4-d]pyrimidin-1-yl)-3,4-dihydroxytetrahydrofuran-2-yl)methoxy)methyl)phosphonic acid], 500 to 1000 nM; under `O=P(O)(O)CS(=O)(=O)NC[C@H]1O[C@@H](n2ncc3c(NCc4ccccc4Cl)nc(Cl)nc32)[C@H](O)[C@@H]1O` [Example 3, ((N-(((2R,3S,4R,5R)-5-(6-Chloro-4-((2-chlorobenzyl)amino)-1H-pyrazolo[3,4-d]pyrimidin-1-yl)-3,4-dihydroxytetrahydrofuran-2-yl)methyl)sulfamoyl)methyl)phosphonic acid], not above 500 nM.

For the molecule `C[C@H](Nc1nc(Cl)nc2c1cnn2[C@@H]1O[C@H](COCP(=O)(O)O)[C@@H](O)[C@H]1O)c1ccccc1Cl` [Example 33, ((((2R,3S,4R,5R)-5-(6-chloro-4-(((S)-1-(2-chlorophenyl)ethyl)amino)-1H-pyrazolo[3,4-d]pyrimidin-1-yl)-3,4-dihydroxytetrahydrofuran-2-yl)methoxy)methyl)phosphonic acid], the half-inhibitory concentration (IC50) was not above 500 nM. `CN(Cc1ccccc1)c1nc(Cl)nc2c1cnn2[C@@H]1O[C@H](COCP(=O)(O)O)[C@@H](O)[C@H]1O` [Example 7, ((((2R,3S,4R,5R)-5-(4-(Benzyl(methyl)amino)-6-chloro-1H-pyrazolo[3,4-d]pyrimidin-1-yl)-3,4-dihydroxytetrahydrofuran-2-yl)methoxy)methyl)phosphonic acid] had an IC50 not above 500 nM. Under `CN(Cc1ccccc1Cl)c1nc(Cl)nc2c1cnn2[C@@H]1O[C@H](COCP(=O)(O)O)[C@@H](O)[C@H]1O` [Example 64, ((((2R,3S,4R,5R)-5-(6-chloro-4-((2-chlorobenzyl)(methyl)amino)-1H-pyrazolo[3,4-d]pyrimidin-1-yl)-3,4-dihydroxytetrahydrofuran-2-yl)methoxy)methyl)phosphonic acid] stands 500 to 1000 nM; under `O=P(O)(O)COC[C@H]1O[C@@H](n2ncc3c(Nc4ccccc4)nc(Cl)nc32)[C@H](O)[C@@H]1O` [Example 75, ((((2R,3S,4R,5R)-5-(6-chloro-4-(phenylamino)-1H-pyrazolo[3,4-d]pyrimidin-1-yl)-3,4-dihydroxytetrahydrofuran-2-yl)methoxy)methyl)phosphonic acid], not above 500 nM. Under `C[C@H](Nc1nc(Cl)nc2c1cnn2[C@@H]1O[C@H](CS(=O)(=O)CP(=O)(O)O)[C@@H](O)[C@H]1O)c1ccccc1Cl` [Example 129, (((((2S,3S,4R,5R)-5-(6-chloro-4-(((S)-1-(2-chlorophenyl)ethyl)amino)-1H-pyrazolo[3,4-d]pyrimidin-1-yl)-3,4-dihydroxytetrahydrofuran-2-yl)methyl)sulfonyl)methyl)phosphonic acid] stands not above 500 nM. The result for `O=P(O)(O)COC[C@H]1O[C@@H](n2ncc3c(NC4CC(F)(F)C4)nc(Cl)nc32)[C@H](O)[C@@H]1O` [Example 87, ((((2R,3S,4R,5R)-5-(6-chloro-4-((3,3-difluorocyclobutyl)amino)-1H-pyrazolo[3,4-d]pyrimidin-1-yl)-3,4-dihydroxytetrahydrofuran-2-yl)methoxy)methyl)phosphonic acid] reads not above 500 nM; that for `N#Cc1nc(NCc2cccc(Cl)c2)c2cnn([C@@H]3O[C@H](COCP(=O)(O)O)[C@@H](O)[C@H]3O)c2n1` [Example 18, ((((2R,3S,4R,5R)-5-(4-((3-Chlorobenzyl)amino)-6-cyano-1H-pyrazolo[3,4-d]pyrimidin-1-yl)-3,4-dihydroxytetrahydrofuran-2-yl)methoxy)methyl)phosphonic acid], not above 500 nM; that for `O=P(O)(O)CS(=O)(=O)C[C@H]1O[C@@H](n2ncc3c(N[C@H]4CCc5ccccc54)nc(Cl)nc32)[C@H](O)[C@@H]1O` [Example 123, (((((2S,3S,4R,5R)-5-(6-chloro-4-(((S)-2,3-dihydro-1H-inden-1-yl)amino)-1H-pyrazolo[3,4-d]pyrimidin-1-yl)-3,4-dihydroxytetrahydrofuran-2-yl)methyl)sulfonyl)methyl)phosphonic acid], not above 500 nM. Molecule `C[C@@H](OCP(=O)(O)O)[C@H]1O[C@@H](n2ncc3c(NCc4ccccc4Cl)nc(Cl)nc32)[C@H](O)[C@@H]1O` [Example 60, (((R)-1-((2S,3S,4R,5R)-5-(6-chloro-4-((2-chlorobenzyl)amino)-1H-pyrazolo[3,4-d]pyrimidin-1-yl)-3,4-dihydroxytetrahydrofuran-2-yl)ethoxy)methyl)phosphonic acid] had a 50% inhibitory concentration (IC50) of more than 1000 nM. `CN(CC1CC1)c1nc(Cl)nc2c1cnn2[C@@H]1O[C@H](COCP(=O)(O)O)[C@@H](O)[C@H]1O` [Example 72, ((((2R,3S,4R,5R)-5-(6-chloro-4-((cyclopropylmethyl)(methyl)amino)-1H-pyrazolo[3,4-d]pyrimidin-1-yl)-3,4-dihydroxytetrahydrofuran-2-yl)methoxy)methyl)phosphonic acid]: the IC50 was not above 500 nM. Under `C[C@@H]1CCC[C@@H]1Nc1nc(Cl)nc2c1cnn2[C@@H]1O[C@H](CS(=O)(=O)CP(=O)(O)O)[C@@H](O)[C@H]1O` [Example 135, (((((2S,3S,4R,5R)-5-(6-chloro-4-(((1S,2R)-2-methylcyclopentyl)amino)-1H-pyrazolo[3,4-d]pyrimidin-1-yl)-3,4-dihydroxytetrahydrofuran-2-yl)methyl)sulfonyl)methyl)phosphonic acid] stands not above 500 nM. Under `O=P(O)(O)CS(=O)(=O)C[C@H]1O[C@@H](n2ncc3c(NCc4ccccc4Cl)nc(Cl)nc32)[C@H](O)[C@@H]1O` [Example 14, (((((2S,3S,4R,5R)-5-(6-Chloro-4-((2-chlorobenzyl)amino)-1H-pyrazolo[3,4-d]pyrimidin-1-yl)-3,4-dihydroxytetrahydrofuran-2-yl)methyl)sulfonyl)methyl)phosphonic acid] stands not above 500 nM; under `O=P(O)(O)COC[C@H]1O[C@@H](n2ncc3c(NCc4cccc(C(F)(F)F)c4)nc(Cl)nc32)[C@H](O)[C@@H]1O` [Example 32, ((((2R,3S,4R,5R)-5-(6-chloro-4-((3-(trifluoromethyl)benzyl)amino)-1H-pyrazolo[3,4-d]pyrimidin-1-yl)-3,4-dihydroxytetrahydrofuran-2-yl)methoxy)methyl)phosphonic acid], not above 500 nM. The result for `Cn1ncc2cccc(CNc3nc(Cl)nc4c3cnn4[C@@H]3O[C@H](COCP(=O)(O)O)[C@@H](O)[C@H]3O)c21` [Example 48, ((((2R,3S,4R,5R)-5-(6-chloro-4-(((1-methyl-1H-indazol-7-yl)methyl)amino)-1H-pyrazolo[3,4-d]pyrimidin-1-yl)-3,4-dihydroxytetrahydrofuran-2-yl)methoxy)methyl)phosphonic acid] reads not above 500 nM; that for `O=P(O)(O)COC[C@H]1O[C@@H](n2ncc3c(NCc4cccc(F)c4)nc(Cl)nc32)[C@H](O)[C@@H]1O` [Example 29, ((((2R,3S,4R,5R)-5-(6-chloro-4-((3-fluorobenzyl)amino)-1H-pyrazolo[3,4-d]pyrimidin-1-yl)-3,4-dihydroxytetrahydrofuran-2-yl)methoxy)methyl)phosphonic acid], not above 500 nM.

These data come from patent US11377469B2, “CD73 inhibitors” (ORIC Pharmaceuticals, Inc., priority 2017, dated 2022).
